# Measurements from US20170321285A1, “NLRC5 AS A BIOMARKER FOR CANCER PATIENTS AND A TARGET FOR CANCER THERAPY” (THE TEXAS A&M UNIVERSITY SYSTEM, priority 2016, published 2017).
# Tested on: cancer cell lines
# Test: not given
# Conditions: 3 μM 5-azacytidine, various cancer cell lines, qPCR (FIG. 2A)
Compound,expression of hla-b,expression of nlrc5
"Nc1ncn([C@@H]2O[C@H](CO)[C@@H](O)[C@H]2O)c(=O)n1 [5-Azacitidine, 4-amino-1-β-D-ribofuranosyl-1,3,5-triazin-2(1H)-one]",upregulation,upregulation

# Tested on: hla-b promoter
# Test: hla-b promoter dual-luciferase reporter assay with nlrc5 mutant plasmids in HEK293T cells
# Format: cell-based, human
# Conditions: 100 ng mutant plasmid with HLA-B250 luciferase reporter, 48 h post-transfection (FIG. 3H)
# Excerpt: FIGS. 3A-3J. Copy number loss and somatic mutations in nlrc5 are associated with reduced MHC class I gene expressions. FIG. 3A. Percentage of cancer patients who carry nlrc5 copy number (CN) loss among 20 TCGA tumor types. Based on GISTIC values, samples were classified into nlrc5 diploid group and CN loss group: GISTIC 0, diploid; −1 and −2, CN loss. FIG. 3B. Percentage of cancer patients who carry copy number (CN) loss of various MHC class I-related genes for 10 TCGA tumor types for which data are available (bladder, breast, colon, head/neck, lung adeno, lung squamous, ovarian, prostate, rectal and uterine cancer, top) and ovarian cancer (bottom). Statistical significance was determined by chi-square test. *: p<0.01, **: p<0.0001. FIG. 3C. Heatmap showing gene expression of nlrc5 and hla-b in nlrc5 diploid group (n=2028) or CN loss group (n=890) for 17 TCGA tumor types in which the nlrc5 promoter is not methylated. FIG. 3D. The box plots showing nlrc5 and MHC class I-related gene expression in the nlrc5 diploid group or CN loss group in breast cancer patients. FIG. 3E. Pie chart representing the percentage distribution of different types of mutations in nlrc5 in various cancer patients (n=7752). FIG. 3F. Mutation rate in 20 TCGA tumor types. FIG. 3G. Representation of nlrc5 indicating 13 mutations found in at least 2 different cancer patients. FIG. 3H. HEK293T cells were co-transfected with either empty control vector or the respective nlrc5 mutant plasmid with hla-b reporter plasmid and hla-b promoter activity was assessed by the dual-luciferase assay and normalized against Renilla […] activity. Data are representative of two independent experiments performed in duplicate and is plotted as fold induction with respect to the control vector. Error bar: ±sd. FIG. 3I. […] FIG. 3J. Box plots for the expression level of MHC class I-related genes normalized by the expression level of nlrc5 in 20 TCGA tumor types that are either nlrc5 wild-type or nlrc5 mutant. FIGS. 3D-3J. The horizontal line corresponds to the median, the box to the 25th-75th percentile and the lines to the confidence interval (5th-95th percentile).
# The expression vector for human gfp-nlrc5 in pcDNA3.1 was previously described. The reporter gene construct used for MHC class I promoter activity (HLA-B250) was also previously described. Selected nlrc5 mutants were constructed using pcDNA3.1-gfp-nlrc5 by site-directed mutagenesis using the primers listed in Table 3. All the plasmids were confirmed by sequencing (Gene Technologies Laboratory).
# HEK293T cells were cultured in DMEM supplemented with 10% FBS and penicillin/streptomycin (Life Technologies) at 37° C. with 5% CO2. Cells were transiently transfected using polyethylenimine at a DNA/polyethylenimine ratio of 1:3 in serum-free media. For luciferase assay, HEK293T cells were split at a density of 5×10^4 cells/well into 24-well plates 1 day prior to transfection. Cells were co-transfected using 100 ng of gfp-nlrc5 or 100 ng of the specified nlrc5 mutant plasmids along with 100 ng of HLA-B250 luciferase reporter construct. 20 ng promoterless Renilla luciferase vector (pRL-null; Promega) were included for normalization of transfection efficiency. Cells were harvested 48 h post-transfection, and cell lysates were analyzed using the Dual-Luciferase Reporter Assay System (Promega) according to the manufacturer's instructions.
row,Compound,activity of the NLRC5 protein as compared to the wild-type NLRC5 protein (induction of hla-b promoter activity)
1,"R550W: NLRC5 protein mutant found in cancer patients, expressed from gfp-nlrc5 vector made by site-directed mutagenesis",reduces the activity
2,"R386W: NLRC5 protein mutant found in cancer patients, expressed from gfp-nlrc5 vector made by site-directed mutagenesis",does not reduce or increases the activity
3,"T1173M: NLRC5 protein mutant found in cancer patients, expressed from gfp-nlrc5 vector made by site-directed mutagenesis",does not reduce or increases the activity
4,"R262C: NLRC5 protein mutant found in cancer patients, expressed from gfp-nlrc5 vector made by site-directed mutagenesis",reduces the activity
5,"R1830C: NLRC5 protein mutant found in cancer patients, expressed from gfp-nlrc5 vector made by site-directed mutagenesis",reduces the activity
6,"A737D: NLRC5 protein mutant found in cancer patients, expressed from gfp-nlrc5 vector made by site-directed mutagenesis",reduces the activity
7,"S496F: NLRC5 protein mutant found in cancer patients, expressed from gfp-nlrc5 vector made by site-directed mutagenesis",does not reduce or increases the activity
8,"L181P: NLRC5 protein mutant found in cancer patients, expressed from gfp-nlrc5 vector made by site-directed mutagenesis",reduces the activity
9,"Q1847*: NLRC5 nonsense mutant found in cancer patients, expressed from gfp-nlrc5 vector made by site-directed mutagenesis",reduces the activity
10,"D884N: NLRC5 protein mutant found in cancer patients, expressed from gfp-nlrc5 vector made by site-directed mutagenesis",does not reduce or increases the activity
11,"R574H: NLRC5 protein mutant found in cancer patients, expressed from gfp-nlrc5 vector made by site-directed mutagenesis",does not reduce or increases the activity
12,"A1512T: NLRC5 protein mutant found in cancer patients, expressed from gfp-nlrc5 vector made by site-directed mutagenesis",does not reduce or increases the activity
